These results are taken from patent US12495798B2, “Nicotinamide compound and herbicidal composition comprising compound” (KOREA RESEARCH INSTITUTE OF CHEMICAL TECHNOLOGY, priority 2019, dated 2025).

What all share (assay type): in vivo
The test system of assay [1] is black nightshade. Briefly: Herbicidal activity test against upland field weeds (soil treatment test). The settings on record: 50 g ai/ha, scale 0 (no control) to 100 (complete control); for pest or weed control at 50 g/ha: Solanum nigrum. More on the design: key to Soil treatment herbicidal activity, black nightshade: 0 (no control); 100 (complete control). In short, it runs like this:
(§1)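 Weed control scored visually on a 0 (none) to 100 (complete) scale versus untreated pots at 14 or 21 days in greenhouse (30±5 °C, 14 h light). Test compounds, 50 or 75 g a.i./ha in 50% acetone/0.1% Tween-20, hand-sprayed onto soil one day post-sowing.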

Assay [2] concerns fall panicum. Briefly: Herbicidal activity test against upland field weeds (foliar treatment test). The settings on record: Panicum dichotomiflorum, 50 g ai/ha, scale 0-100. In short, it runs like this: (§2)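 Visual 0–100 control ratings relative to untreated plants, taken 14 (or 21) days after spraying foliage at 50 or 75 g a.i./ha. Spray solution: 50% acetone with 0.1% Tween-20; plants kept in greenhouse at 30±5 °C, 14 h light/10 h dark.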

For assay [3], the system named is velvetleaf. The assay is described as above. Also on record: key to Foliar treatment herbicidal activity, velvet leaf: 0 (no control); 100 (complete control). The settings on record: 50 g ai/ha; for pest or weed control at 50 g/ha: Abutilon theophrasti, scale 0-100, read-out: Foliar treatment herbicidal activity, velvet leaf; for Foliar treatment herbicidal activity, velvet leaf: scale 0-100. In short, it runs like this:
as §2

For assay [4], the system named is black nightshade. Described as above. The settings on record: 50 g ai/ha, scale 0-100; for pest or weed control at 50 g/ha: Solanum nigrum. More on the design: key to Foliar treatment herbicidal activity, black nightshade: 0 (no control); 100 (complete control). In short, it runs like this: as §2
Assay [5] concerns quack grass. The description is as above. The settings on record: 50 g ai/ha, scale 0-100. More on the design: key to Foliar treatment herbicidal activity, quack grass: 0 (no control); 100 (complete control). In short, it runs like this: as §2
Assay [6] has as its system quack grass. Briefly: Herbicidal activity test against upland field weeds (soil treatment test). More on the design: key to Soil treatment herbicidal activity, quack grass: 0 (no control); 100 (complete control). The settings on record: 50 g ai/ha, scale 0 (no control) to 100 (complete control). In short, it runs like this:
as §1

Assay [7] concerns cocklebur. Briefly: Herbicidal activity test against upland field weeds (foliar treatment test). Also on record: key to Foliar treatment herbicidal activity, Cocklebur: 0 (no control); 100 (complete control). The settings on record: 50 g ai/ha, scale 0-100; for pest or weed control at 50 g/ha: Xanthium strumarium. In short, it runs like this:
as §2

In assay [8] the test system is indian jointvetch. Kind of assay: Herbicidal activity test against upland field weeds (soil treatment test). The settings on record: 50 g ai/ha, scale 0 (no control) to 100 (complete control). Also on record: key to Soil treatment herbicidal activity, Indian jointvetch: 0 (no control); 100 (complete control). In short, it runs like this: as §1
Assay [9] concerns fall panicum. The assay is described as above. Also on record: key to Soil treatment herbicidal activity, Fall panicum: 0 (no control); 100 (complete control). The settings on record: 50 g ai/ha, scale 0 (no control) to 100 (complete control). In short, it runs like this: as §1
Assay [10] relates to barnyard grass. The assay is described as above. More on the design: key to Soil treatment herbicidal activity, barnyard grass: 0 (no control); 100 (complete control). The settings on record: 50 g ai/ha, scale 0 (no control) to 100 (complete control). In short, it runs like this: as §1
Assay [11] deals with crabgrass. Kind of assay: Herbicidal activity test against upland field weeds (foliar treatment test). More on the design: key to Foliar treatment herbicidal activity, Crabgrass: 0 (no control); 100 (complete control). The settings on record: 50 g ai/ha, scale 0-100; for pest or weed control at 50 g/ha: Digitaria sanguinalis. In short, it runs like this: as §2
The subject of assay [12] is bindweed. The description is as above. The settings on record: 50 g ai/ha, scale 0-100. In short, it runs like this: as §2
Assay [13] concerns crabgrass. Kind of assay: Herbicidal activity test against upland field weeds (soil treatment test). More on the design: key to Soil treatment herbicidal activity, Crabgrass: 0 (no control); 100 (complete control). The settings on record: 50 g ai/ha, scale 0 (no control) to 100 (complete control). In short, it runs like this: as §1
Assay [14] concerns cocklebur. The assay is described as above. The settings on record: 50 g ai/ha, scale 0 (no control) to 100 (complete control). Also on record: key to Soil treatment herbicidal activity, Cocklebur: 0 (no control); 100 (complete control). On the procedure: Experimental Example 2: Herbicidal Activity Test Against Upland Field Weeds (Soil Treatment Test) Soil treatment was performed as follows: After filling a square plastic pot having a surface area of 350 cm^2 with sandy loam mixed with 1 g per pot (350 cm^2) of horticultural mixed fertilizer (N:P:K=11:10:11), seeds (10˜15 grains) or rootstocks (2 pieces) of 5 kinds of grassy weeds of sorghum, barnyard grass, quack grass, crabgrass, fall panicum, and 5 kinds of broadleaf weeds of black nightshade, indian jointvetch, velvetleaf, cocklebur, bindweed, which had been stored in a low temperature (6° C.), were sown. The day after sowing, test compound solutions were made by diluting with a preparation solution (including 50% acetone, 0.1% Tween-20) so that the final treatment amount of the test compounds was 50 or 75 g a.i./ha. The prepared test compound solution was used for treating soil surface by hand-spraying 14 mL per pot in a fume hood. After the treatment, it was managed under the same greenhouse conditions (average temperature 30±5° C., light/dark=14/10 hours), and after 14 days (after 21 days if necessary), the external symptoms and efficacy were investigated according to the scale of 0 (no control) to 100 (complete control). The results of Table 8 were obtained by evaluating weed control value to the untreated control by conducting visual assessment.

The test system of assay [15] is barnyard grass. Briefly: Herbicidal activity test against upland field weeds (foliar treatment test). The settings on record: Echinochloa crus-galli, 50 g ai/ha, scale 0-100. In short, it runs like this:
as §2

In assay [16] the test system is indian jointvetch. The description is as above. The settings on record: 50 g ai/ha, scale 0-100. In short, it runs like this:
as §2

In assay [17] the test system is sorghum. The assay is described as above. The settings on record: Sorghum, 50 g ai/ha, scale 0-100. In short, it runs like this:
as §2

Assay [18] concerns sorghum. Briefly: Herbicidal activity test against upland field weeds (soil treatment test). Also on record: key to Soil treatment herbicidal activity, Sorghum: 0 (no control); 100 (complete control). The settings on record: 50 g ai/ha, scale 0 (no control) to 100 (complete control). In short, it runs like this: as §1
Assay [19] has as its system velvetleaf. The assay is described as above. More on the design: key to Soil treatment herbicidal activity, velvet leaf: 0 (no control); 100 (complete control). The settings on record: 50 g ai/ha, scale 0 (no control) to 100 (complete control); for pest or weed control at 50 g/ha: Abutilon theophrasti, read-out: Soil treatment herbicidal activity, velvet leaf. In short, it runs like this: as §1

One may read the plant injury as the degree to which the test organism was suppressed or injured, in per cent. As for `CON(Cc1nnn(C)n1)Cc1nc(C(F)F)ccc1C(=O)Nc1nnnn1C` [Compound No. 2-86, 6-(difluoromethyl)-2-((methoxy((2-methyl-2H-tetrazol-5-yl)methyl)amino)methyl)-N-(1-methyl-1H-tetrazol-5-yl)nicotinamide], the “Soil treatment herbicidal activity, black nightshade” value in assay [1] amounted to 100. For the same compound, the pest or weed control at 50 g/ha in assay [2] stood at 50%; in assay [3], 98%; in [4], 95%; in [7] it was 80%; in assay [9] (Panicum dichotomiflorum), 20%; in [10] (Echinochloa crus-galli), 98%. Also, the pest or weed control at 50 g/ha was determined as 70% in assay [11], 40% in [12], 95% in assay [15] and 80% in assay [16]. The “Foliar treatment herbicidal activity, quack grass” value in assay [5] was 0. Moreover, the “Soil treatment herbicidal activity, quack grass” value in assay [6] is given as 0. Also, the “Soil treatment herbicidal activity, Indian jointvetch” value in assay [8] is on record as 100. The “Soil treatment herbicidal activity, Crabgrass” value in assay [13] was found to be 0. In [14], the “Soil treatment herbicidal activity, Cocklebur” value worked out at 0. The compound also registered a plant injury at 50 g/ha in assay [17] of 30%. Moreover, in assay [18], the “Soil treatment herbicidal activity, Sorghum” value came to 0. Also, the “Soil treatment herbicidal activity, velvet leaf” value in assay [19] amounted to 100.
For `CSc1nc(COCc2nc(C(F)(F)F)ccc2C(=O)Nc2nnnn2C)nn1C` [Compound No. 2-131, N-(1-methyl-1H-tetrazol-5-yl)-2-(((1-methyl-5-(methylthio)-1H-1,2,4-triazol-3-yl)methoxy)methyl)-6-(trifluoromethyl)nicotinamide], the pest or weed control at 50 g/ha was found to be 98% in assay [1]; 70% in assay [2]; 10% in assay [5]; 80% in assay [7]; 98% in assay [15]; 70% in assay [16]. Further, the pest or weed control at 50 g/ha in assay [19] was found to be 98%. In addition, in assay [3], the “Foliar treatment herbicidal activity, velvet leaf” value was 100. Moreover, the “Foliar treatment herbicidal activity, black nightshade” value in assay [4] is 100. Moreover, the “Soil treatment herbicidal activity, quack grass” value in assay [6] is 0. Moreover, in [8], the “Soil treatment herbicidal activity, Indian jointvetch” value is 100. Further, in [10], the “Soil treatment herbicidal activity, barnyard grass” value stood at 0. Besides, in assay [11], the “Foliar treatment herbicidal activity, Crabgrass” value is reported as 100. Moreover, the “Soil treatment herbicidal activity, Crabgrass” value in assay [13] is 0. In addition, the “Soil treatment herbicidal activity, Cocklebur” value in assay [14] is listed as 0. The compound also showed a plant injury at 50 g/ha in [17] of 40%. Also, in assay [18], the “Soil treatment herbicidal activity, Sorghum” value stood at 0.
`Cn1cnc(COCc2nc(C(F)(F)Cl)ccc2C(=O)Nc2nnnn2C)n1` [Compound No. 2-80, 6-(chlorodifluoromethyl)-2-(((1-methyl-1H-1,2,4-triazol-3-yl)methoxy)methyl)-N-(1-methyl-1H-tetrazol-5-yl)nicotinamide]: the pest or weed control at 50 g/ha is 98% in [1]; 60% in assay [2]; 98% in assay [3]; 98% in [4]; 40% in assay [7]; 40% in [8]. Moreover, the pest or weed control at 50 g/ha in assay [11] is 40%; in [12] it was 40%; in assay [15] it was 80%; in assay [16] it was 70%; in assay [19], 98%. Moreover, in assay [5], the “Foliar treatment herbicidal activity, quack grass” value amounted to 0. Further, in assay [6], the “Soil treatment herbicidal activity, quack grass” value came out at 0. Besides, the “Soil treatment herbicidal activity, Fall panicum” value in assay [9] is 0. Moreover, in assay [10], the “Soil treatment herbicidal activity, barnyard grass” value turned out to be 0. Further, in [13], the “Soil treatment herbicidal activity, Crabgrass” value stood at 0. The “Soil treatment herbicidal activity, Cocklebur” value in [14] turned out to be 0. In assay [17], the plant injury at 50 g/ha was found to be 20%. Besides, the “Soil treatment herbicidal activity, Sorghum” value in assay [18] came out at 0.
`CON(Cc1nc(C(F)(F)F)ccc1C(=O)Nc1nnnn1C)Cc1ncnn1C` [Compound No. 1-91, 2-((methoxy((1-methyl-1H-1,2,4-triazol-5-yl)methyl)amino)methyl)-N-(1-methyl-1H-tetrazol-5-yl)-6-(trifluoromethyl)nicotinamide]: the pest or weed control at 50 g/ha in assay [1] was found to be 98%; in [2], 90%; in assay [4], 98%; in assay [8], 98%; in [11], 98%; in assay [12], 80%. In addition, the results for the pest or weed control at 50 g/ha in assay [15] and in [16] were 98% and 90%, respectively. The “Foliar treatment herbicidal activity, velvet leaf” value in [3] turned out to be 100. In addition, the “Foliar treatment herbicidal activity, quack grass” value in [5] is reported as 0. In assay [6], the “Soil treatment herbicidal activity, quack grass” value worked out at 0. The “Foliar treatment herbicidal activity, Cocklebur” value in assay [7] was determined as 100. Besides, the “Soil treatment herbicidal activity, Fall panicum” value in [9] worked out at 0. The “Soil treatment herbicidal activity, barnyard grass” value in assay [10] is reported as 0. The “Soil treatment herbicidal activity, Crabgrass” value in assay [13] came to 0. Moreover, the “Soil treatment herbicidal activity, Cocklebur” value in assay [14] is 0. In addition, in [17], the plant injury at 50 g/ha turned out to be 50%. Moreover, in [18], the “Soil treatment herbicidal activity, Sorghum” value turned out to be 0. Moreover, in assay [19], the “Soil treatment herbicidal activity, velvet leaf” value was determined as 100.
